# Patent publication US7879887B2, “α-amino acid derivatives and medicaments containing the same as an active ingredient” (Nissan Chemical Industries, Ltd., priority 2006, dated 2011)
# How the values were obtained:
# [1] = biological target: T1, CDK1/Cyclin B complex (Homo sapiens, UniProt P06493); test: In vitro kinase assay, CDK1/Cyclin B complex; assay type: biochemical; settings: recombinant protein (Upstate)
# T1 construct: purchased Upstate Inc. 14-450
# Procedure: (§1) Inhibitory activity against Aurora A, CDK1/Cyclin B complex, CDK2/Cyclin E complex and CDK3/Cyclin E complex were measured by in vitro kinase assay using recombinant proteins. The assays were carried out by using recombinant proteins (Upstate Inc.) for Aurora A, CDK1/Cyclin B complex, CDK2/Cyclin E complex and CDK3/Cyclin E complex (respective cat. nos. 14-511, 14-450, 14-448 and 14-487), in accordance with the procedure described in the product instructions thereof. The 50% inhibitory concentrations (IC50 values) were calculated by assigning measured values in the case of not containing a test compound to an inhibition of 0%, and assigning measured values in the case of not containing a test compound and enzyme to an inhibition of 100%.
# [2] = biological target: CDK2/Cyclin E complex (Homo sapiens, UniProt P24941); test: In vitro kinase assay, CDK2/Cyclin E complex; assay type: biochemical; settings: recombinant protein (Upstate); read-out: CDK2/cyclinE IC50
# Procedure: (§2) Inhibitory activity against Aurora A, CDK1/Cyclin B complex, CDK2/Cyclin E complex and CDK3/Cyclin E complex were measured by in vitro kinase assay using recombinant proteins.
# [3] = tested on: leukemia cell line KG-1a; test: Cell proliferation inhibitory activity, KG-1a; assay type: cell-based; settings: Homo sapiens, 96 h, cells counted 4 days later with Cell Counting Kit-8
# Procedure: (§3) Evaluations were carried out using colon carcinoma cell line SW620 (Cat. No. CCL-227), lung carcinoma cell line NCI-H460 (Cat. No. HTB-177), prostate cancer cell line DU 145 (Cat. No. HTB-81), breast cancer cell line MDA-MB-231 (Cat. No. HTB26) and leukemia cell line KG-1a (Cat. No. CCL-246.1) purchased from ATCC, pancreatic cancer cell line MIAPaCa-2 (Cat. No. CRL-1420) purchased from Dainippon Pharmaceutical, and ovarian cancer cell line IGROV1 received from the Netherland Cancer Institute. The cells were cultured under the conditions recommended by the supplier for each cell line, or with respect to IGROV1, according to the method described in Cancer Res. 59: 4559-4563, 1999. Cells suspended in media were added to solutions containing the test substances at various concentrations followed by culturing in a 5% CO2 incubator at 37° C. The numbers of cells were counted 4 days later with the Cell Counting Kit-8. IC50 values were calculated by assigning measured values in the case of not containing a test substance to an inhibition of 0%, and assigning measured values in the case of not containing a test substance or cells to an inhibition of 100%.
# [4] = biological target: T2, CDK3/Cyclin E complex (Homo sapiens, UniProt Q00526); test: In vitro kinase assay, CDK3/Cyclin E complex; assay type: biochemical; settings: recombinant protein (Upstate); read-out: CDK3/cyclinE IC50
# T2 construct: purchased Upstate Inc. 14-487
# T2 sequence (Q00526 whole entry): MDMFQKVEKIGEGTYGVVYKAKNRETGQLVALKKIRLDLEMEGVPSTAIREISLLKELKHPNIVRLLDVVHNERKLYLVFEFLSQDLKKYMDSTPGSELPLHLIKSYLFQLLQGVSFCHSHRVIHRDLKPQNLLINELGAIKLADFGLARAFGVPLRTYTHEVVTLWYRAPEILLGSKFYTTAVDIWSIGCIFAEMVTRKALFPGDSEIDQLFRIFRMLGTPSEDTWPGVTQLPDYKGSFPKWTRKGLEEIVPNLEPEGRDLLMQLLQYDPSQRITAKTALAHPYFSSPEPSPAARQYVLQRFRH
# T2 sequence (P24864 whole entry partner): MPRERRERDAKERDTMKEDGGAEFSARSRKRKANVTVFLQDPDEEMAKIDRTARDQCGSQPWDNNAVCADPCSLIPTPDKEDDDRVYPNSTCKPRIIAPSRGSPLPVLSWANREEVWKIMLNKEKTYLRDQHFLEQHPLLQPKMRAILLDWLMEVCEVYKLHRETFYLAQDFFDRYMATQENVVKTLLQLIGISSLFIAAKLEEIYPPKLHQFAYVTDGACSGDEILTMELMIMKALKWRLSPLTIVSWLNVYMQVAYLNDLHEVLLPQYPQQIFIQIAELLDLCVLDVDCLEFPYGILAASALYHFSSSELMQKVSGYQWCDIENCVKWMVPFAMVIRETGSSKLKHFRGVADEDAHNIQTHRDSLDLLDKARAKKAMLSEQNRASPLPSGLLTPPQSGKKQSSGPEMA
# Procedure: as §2
# [5] = tested on: colon carcinoma cell line SW620; test: Cell proliferation inhibitory activity, SW620; assay type: cell-based, human; settings: Homo sapiens, SW-620, 96 h, cells counted 4 days later with Cell Counting Kit-8
# Procedure: as §3
# [6] = tested on: lung carcinoma cell line NCI-H460; test: Cell proliferation inhibitory activity, NCI-H460; assay type: cell-based; settings: Homo sapiens, 96 h, cells counted 4 days later with Cell Counting Kit-8
# Procedure: as §3
# [7] = biological target: T3, Aurora A (Homo sapiens, UniProt O14965); test: In vitro kinase assay, Aurora A; assay type: biochemical; settings: recombinant protein (Upstate)
# T3 construct: purchased Upstate Inc. 14-511
# T3 sequence (O14965 1-403): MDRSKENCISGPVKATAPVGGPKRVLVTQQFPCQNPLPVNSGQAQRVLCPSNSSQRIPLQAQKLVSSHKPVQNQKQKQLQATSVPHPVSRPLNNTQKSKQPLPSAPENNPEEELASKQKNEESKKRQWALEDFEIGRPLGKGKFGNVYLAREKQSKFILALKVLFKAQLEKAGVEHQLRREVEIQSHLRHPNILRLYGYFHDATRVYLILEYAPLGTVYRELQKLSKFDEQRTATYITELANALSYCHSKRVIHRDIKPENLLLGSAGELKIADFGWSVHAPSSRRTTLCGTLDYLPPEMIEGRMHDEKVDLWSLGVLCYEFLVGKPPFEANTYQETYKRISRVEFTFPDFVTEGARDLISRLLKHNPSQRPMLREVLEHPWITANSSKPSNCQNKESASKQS
# Procedure: as §1
# [8] = tested on: prostate cancer cell line DU 145; test: Cell proliferation inhibitory activity, DU 145; assay type: cell-based, human; settings: Homo sapiens, 96 h, cells counted 4 days later with Cell Counting Kit-8
# Procedure: as §3
# T1 sequence (P06493 whole entry): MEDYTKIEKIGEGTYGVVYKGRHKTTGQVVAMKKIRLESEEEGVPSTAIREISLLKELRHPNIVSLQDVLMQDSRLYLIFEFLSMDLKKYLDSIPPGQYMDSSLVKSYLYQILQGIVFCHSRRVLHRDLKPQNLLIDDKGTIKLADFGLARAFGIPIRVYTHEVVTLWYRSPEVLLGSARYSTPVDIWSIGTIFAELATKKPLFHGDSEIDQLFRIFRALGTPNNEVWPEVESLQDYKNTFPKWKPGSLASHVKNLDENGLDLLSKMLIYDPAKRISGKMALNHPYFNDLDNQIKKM
# T1 sequence (P14635 whole entry partner): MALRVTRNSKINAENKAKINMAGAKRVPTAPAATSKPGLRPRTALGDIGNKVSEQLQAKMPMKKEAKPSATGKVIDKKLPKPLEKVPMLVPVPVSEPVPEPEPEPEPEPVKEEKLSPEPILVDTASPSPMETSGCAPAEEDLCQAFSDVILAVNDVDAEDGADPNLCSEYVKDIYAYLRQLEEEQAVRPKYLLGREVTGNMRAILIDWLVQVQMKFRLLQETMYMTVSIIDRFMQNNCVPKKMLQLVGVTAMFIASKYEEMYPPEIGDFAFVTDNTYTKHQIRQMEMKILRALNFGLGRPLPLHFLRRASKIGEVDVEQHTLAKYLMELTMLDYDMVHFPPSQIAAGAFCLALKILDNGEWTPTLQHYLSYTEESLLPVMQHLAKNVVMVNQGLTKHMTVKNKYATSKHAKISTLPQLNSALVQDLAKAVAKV
Structure (SMILES),IC50 [1],IC50 [7],IC50 [2],IC50 [3],IC50 [4],IC50 [5],IC50 [6],IC50 [8]
O=C(CNc1ccc(Cl)cc1)Nc1nc2ccc3[nH]ncc3c2s1 [compound 9],372 nM,–,40 nM,< 100 nM,81 nM,–,–,–
CC(C)CC(Nc1cccc(O)c1)C(=O)Nc1nc2ccc3[nH]ncc3c2s1 (stereo not shown) [compound 25],–,137 nM,366 nM,< 100 nM,448 nM,1600 nM,3200 nM,–
CC(C)(Nc1ccc(Cl)nc1)C(=O)Nc1nc2c(C(F)(F)F)cc3[nH]ncc3c2s1 [compound 96],–,–,347 nM,–,277 nM,2300 nM,3900 nM,3600 nM
CC(C)(Nc1cccc(C(=O)NCCC(N)=O)c1)C(=O)Nc1nc2c(C(F)(F)F)cc3[nH]ncc3c2s1 [compound 101],39 nM,118 nM,30 nM,–,21 nM,2000 nM,–,4400 nM
CC(C)(Nc1ccc(Cl)c(C(=O)NCCCS(N)(=O)=O)c1)C(=O)Nc1nc2c(C(F)(F)F)cc3[nH]ncc3c2s1 [compound 102],105 nM,39 nM,76 nM,–,30 nM,–,–,–

# Further lines, with some results ahead:
IC50 [1],IC50 [7],Structure (SMILES),IC50 [2],IC50 [3],IC50 [4],IC50 [5],IC50 [6],IC50 [8]
483 nM,66 nM,CC(C)(Nc1cccc(C(=O)NCC(=O)OCCO)c1)C(=O)Nc1nc2c(C(F)(F)F)cc3[nH]ncc3c2s1 [compound 86],274 nM,–,85 nM,–,–,–
446 nM,19 nM,CC(C)(Nc1ccc(Cl)c(C(=O)O)c1)C(=O)Nc1nc2c(C(F)(F)F)cc3[nH]ncc3c2s1 [compound 136],295 nM,–,99 nM,–,–,–
446 nM,247 nM,CC(C)(Nc1cccc(C(=O)NCCCC(=O)O)c1)C(=O)Nc1nc2c(C(F)(F)F)cc3[nH]ncc3c2s1 [compound 140],428 nM,–,160 nM,–,–,–
